Source: US12172959B2, “Mono- or di-substituted indole derivatives as dengue viral replication inhibitors” (priority 2015, dated 2024)

Legend:
Type in all cases: cell-based
[1] = in vitro; conditions: African green monkey, CC50
Description: (§1) Potential cytotoxic effects of the compounds were evaluated in uninfected quiescent Vero-B or Vero-M cells. Cells were seeded at 5×10^4 cells/well in a 96-well plate in the presence of two-, three- or five-fold serial dilutions (ranging from 50 μg/mL-0.0038 μg/mL, 50 μg/mL-0.0076 μg/mL, and 50 μg/mL-0.00013 μg/mL, respectively) of compound and incubated for 4 to 7 days. Culture medium was discarded and 100 μL 3-(4,5-dimethylthiazol-2-yl)-5-(3-carboxy-methoxyphenyl)-2-(4-sulfophenyl)-2H-tetrazolium/phenazinemethosulfate (MTS/PMS; Promega, Leiden, The Netherlands) in PBS was added to each well. Following a 2-hour incubation period at 37° C., the optical density was determined at 498 nm. Cytotoxic activity was calculated using the following formula: % cell viability=100×(ODCompound/ODCC), where ODCompound and ODCC correspond to the optical density at 498 nm of the uninfected cell cultures treated with compound and that of uninfected, untreated cell cultures, respectively. The 50% cytotoxic concentration (i.e., the concentration that reduces the total cell number with 50%; CC50) was calculated using linear interpolation.

[2] = test system: uninfected quiescent Vero-B or Vero-M cells; test: in vitro; conditions: African green monkey
Description: as §1

[3] = test system: DENV-4 strain SG/06K2270DK1/2005 (Eden); test: Tetravalent RT-qPCR assay Protocol A, serotype 4 EDEN; conditions: Dengue virus, DENV4, Vero, 72 h
Description: The antiviral activity of the compounds of the invention was tested against DENV-1 strain TC974#666 (NCPV; Table 6), DENV-2 strain 16681 (Table 7), DENV-3 strain H87 (NCPV; Table 8) and DENV-4 strains H241 (NCPV; Table 9A) and SG/06K2270DK1/2005 (Eden; Table 9B) in a RT-qPCR assay. Therefore, Vero cells were infected with either DENV-1, or -2, or -3, or -4 in the presence or absence of test compounds. At day 3 post-infection, the cells were lysed and cell lysates were used to prepare cDNA of both a viral target (the 3′UTR of DENV; Table 2) and a cellular reference gene (β-actin, Table 2). Subsequently, a duplex real time PCR was performed on a Lightcycler480 instrument. The generated Cp value is inversely proportional to the amount of RNA expression of these targets. Inhibition of DENV replication by test compound results in a shift of Cp's for the 3′UTR gene. On the other hand, if a test compound is toxic to the cells, a similar effect on β-actin expression will be observed. The comparative ΔΔCp method is used to calculate EC50, which is based on the relative gene expression of the target gene (3′UTR) normalized with the cellular housekeeping gene (β-actin).
The culture medium consisted of minimal essential medium supplemented with 2% of heat-inactivated fetal calf serum, 0.04% gentamycin (50 mg/mL) and 2 mM of L-glutamine. Vero cells, obtained from ECACC, were suspended in culture medium and 75 μL/well was added in 96-well plates (10000 cells/well), which already contain the antiviral compounds. […] In addition, each plate contains wells which are assigned as virus controls (containing cells and virus in the absence of compound) and cell controls (containing cells in the absence of virus and compound). Once the cells were added in the plates, the plates were incubated in a fully humidified incubator (37° C., 5% CO2) until the next day. Dengue viruses serotype-1, 2, 3 and 4 were diluted in order to obtain a Cp of ˜22-24 in the assay. Therefore, 25 μL of virus suspension was added to all the wells containing test compound and to the wells assigned as virus control. In parallel, 25 μL of culture medium was added to the cell controls. Next, the plates were incubated for 3 days in a fully humidified incubator (37° C., 5% CO2). After 3 days, the supernatant was removed from the wells and the cells were washed twice with ice-cold PBS (˜100 μL). The cell pellets within the 96-well plates were stored at −80° C. for at least 1 day. Next, RNA was extracted using the Cells-to-CT™ lysis kit, according to the manufacturer's guideline (Life Technologies). The cell lysates can be stored at −80° C. or immediately used in the reverse transcription step.
In preparation of the reverse transcription step, mix A (table 3A) was prepared and 7.57 μL/well was dispensed in a 96-well plate. After addition of 5 μL of the cell lysates, a five minute denaturation step at 75° C. was performed (table 3B). Afterwards, 7.43 μL of mix B was added (table 3C) and the reverse transcription step was initiated (table 3D) to generate cDNA.
Finally, a RT-qPCR mix was prepared, mix C (table 4A), and 22.02 μL/well was dispensed in 96-well LightCycler qPCR plates to which 3 μL of cDNA was added and the qPCR was performed according to the conditions in table 4B on a LightCycler 480.
Using the LightCycler software and an in-house LIMS system, dose response curves for each compound were calculated and the half maximal effective concentration (EC50) and the half maximal cytotoxic concentration (CC50) were determined.

Row | SMILES | CC50 [1] [µM] | CC50 [2] [µM] | EC50 [3] [µM]
1 | COc1cc(NC(C(=O)c2c[nH]c3cc(F)ccc23)c2ccc(Cl)cc2OC)cc(S(C)(=O)=O)c1 (single isomer, unassigned) [Compound 1A, 2-(4-chloro-2-methoxyphenyl)-1-(6-fluoro-1H-indol-3-yl)-2-((3-methoxy-5-(methylsulfonyl)phenyl)amino)ethanone] | 8 | 11 | 0.0024
2 | COc1cc(NC(C(=O)c2c[nH]c3c(C)c(F)ccc23)c2ccc(Cl)cc2OC)cc(S(C)(=O)=O)c1 (single isomer, unassigned) [Compound 2A, 2-(4-chloro-2-methoxyphenyl)-1-(6-fluoro-7-methyl-1H-indol-3-yl)-2-((3-methoxy-5-(methylsulfonyl)phenyl)amino)ethanone] | 7.3 | 11 | 0.0013
3 | COc1cc(NC(C(=O)c2c[nH]c3cc(OC)c(C)cc23)c2ccc(Cl)cc2OC)cc(S(C)(=O)=O)c1 (single isomer, unassigned) [Compound 4A, 2-(4-chloro-2-methoxyphenyl)-2-((3-methoxy-5-(methyl-sulfonyl)phenyl)amino)-1-(6-methoxy-5-methyl-1H-indol-3-yl)ethanone] | 4.3 | 6.6 | 0.00055
4 | COc1cc(NC(C(=O)c2c[nH]c3cc(OC)c(F)cc23)c2ccc(Cl)cc2OC)cc(S(C)(=O)=O)c1 (single isomer, unassigned) [Compound 5A, 2-(4-chloro-2-methoxyphenyl)-1-(5-fluoro-6-methoxy-1H-indol-3-yl)-2-((3-methoxy-5-(methylsulfonyl)phenyl)amino)ethanone] | 9.2 | – | 0.0029
5 | COc1cc(NC(C(=O)c2c[nH]c3c(C)c(OC)ccc23)c2ccc(Cl)cc2OC)cc(S(C)(=O)=O)c1 (single isomer, unassigned) [Compound 6A, 2-(4-chloro-2-methoxyphenyl)-2-((3-methoxy-5-(methyl-sulfonyl)phenyl)amino)-1-(6-methoxy-7-methyl-1H-indol-3-yl)ethanone] | > 92 | > 92 | 0.00042
